From ChEMBL document CHEMBL1201862, “PubChem BioAssay data set” (2004)
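In this assay, cells in 96-well plates receive the compound at five concentrations for 48 hours. Endpoints are linearly interpolated between the surrounding concentrations. GI50 = concentration required for 50% inhibition of growth.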 Calls of active or inactive are those of the source. No stated cut-off is given here; in the data, active = GI50 up to about 1.1 µM and inactive = higher.

What was measured:
Experiment in all cases: inhibition of tumour cell growth, NCI panel, 48 h
[1] = test system: SNB-78
[2] = test system: M19-MEL
[3] = test system: XF498
[4] = test system: HOP-18
[5] = test system: DMS-114
[6] = test system: LXFL 529
[7] = test system: RXF 631
[8] = test system: BT-549
[9] = test system: Hs-578T

Measured: GI50

O=C(NN1C(=O)C(Cl)C1c1ccccc1Cl)c1ccccc1O (configuration not stated)
inactive: [1] > 100 µM | [2] > 100 µM | [3] 32.7 µM | [4] > 100 µM | [5] 70 µM | [6] > 100 µM

CCC(=O)C(C(=O)CC)c1c(OC(=O)c2ccccc2)ccc(O)c1C(=O)OC
inactive: [1] > 100 µM | [2] > 100 µM | [3] > 100 µM | [7] > 100 µM | [6] > 100 µM

CCOP(=O)(OCC)C1CCCOC1=O (configuration not stated)
inactive: [1] > 100 µM | [2] > 100 µM | [3] > 100 µM | [7] > 100 µM | [4] > 100 µM | [5] > 100 µM | [6] > 100 µM

CCCCc1c2c(nc3c1CCC/C3=C\c1ccccc1)C(=O)CCC2
inactive: [1] 19.6 µM | [2] 18.2 µM | [3] 12.1 µM | [4] 25.6 µM | [5] 20.7 µM | [6] 35.6 µM

COc1cc(-c2cc(=O)c3ccccc3o2)ccc1N
inactive: [1] > 100 µM | [2] > 100 µM | [3] 24 µM | [4] 27.5 µM | [5] 63.5 µM | [6] > 100 µM

Cc1cc(Br)ccc1/N=N/C1C(=O)ON=C1c1ccccc1 (configuration not stated)
inactive: [1] > 100 µM | [2] 67.6 µM | [7] 51.6 µM | [4] > 100 µM | [5] 65.6 µM | [6] 69.5 µM

COC(=O)C(/C(=N/NC(N)=O)C(=O)Nc1c(C)cccc1C(C)(C)C)c1nc2ccc(Cl)cc2nc1O (configuration not stated)
inactive: [1] > 100 µM | [2] > 100 µM | [3] > 100 µM | [4] > 100 µM | [5] > 100 µM | [6] > 100 µM

CC1OC(OCC2COC(O)(Oc3c(-c4ccc(O)c(O)c4)oc4cc(O)cc(O)c4c3=O)C(O)C2O)C(O)C(O)C1O (configuration not stated)
inactive: [1] > 100 µM | [2] > 100 µM | [3] > 100 µM | [7] > 100 µM | [4] > 100 µM | [5] > 100 µM | [6] > 100 µM

N#CC(Cl)CS(=O)(=O)c1ccccc1 (configuration not stated)
inactive: [1] 21.1 µM | [2] 15.8 µM | [3] 2.62 µM | [8] 16.7 µM | [4] 8.61 µM | [9] 11.8 µM | [5] 4.11 µM

Clc1ccc(-c2nnc(-c3nn(-c4ccccc4)c4nc5ccccc5nc34)o2)cc1
inactive: [1] > 100 µM | [2] 70.6 µM | [3] 13 µM | [4] > 100 µM | [5] 26.1 µM | [6] 27.2 µM

CC(=O)n1c(=O)c2cc3c(=O)n(-c4cccc(C#N)c4)c(=O)c3cc2c1=O
inactive: [1] 60.3 µM | [2] > 100 µM | [7] > 100 µM | [4] > 100 µM | [5] > 100 µM | [6] > 100 µM

CCOC(=O)C1=C(C)NC2=C(C(=O)N(c3ccccc3)C2c2ccccc2)C1c1ccccc1 (configuration not stated)
inactive: [1] 19.4 µM | [2] 17.3 µM | [3] 18.1 µM | [7] 16.1 µM | [4] 20.4 µM | [5] 16.7 µM | [6] 16 µM

COc1cc(-c2nn3c(=O)n(-c4ccc(Cl)cc4)c(=O)nc3s2)cc(OC)c1OC
inactive: [1] 19.4 µM | [2] > 100 µM | [7] 48.1 µM | [4] 57 µM

Cc1cc(C)n2c(-c3ccccc3)c(C)cc2n1
inactive: [1] 94.6 µM | [2] 30.2 µM | [7] 43.6 µM | [4] > 100 µM | [5] 23.8 µM

Cc1nn(-c2ccccc2)c(-c2ccccc2[N+](=O)[O-])c1CC#N
inactive: [1] > 100 µM | [2] > 100 µM | [3] 21.5 µM | [7] > 100 µM | [5] 98.6 µM | [6] > 100 µM

C(=C\C(Sc1ccccc1)c1ccccc1)/NNC1=NN=C(c2ccccc2)C(c2ccccc2)N1 (configuration not stated)
inactive: [1] > 100 µM | [2] 27.7 µM | [3] 77.1 µM | [7] 30.5 µM | [4] > 100 µM | [5] 35.8 µM

COc1ccc(-c2cc(=O)c3c(O)cccc3o2)c(OC)c1OC
inactive: [1] 51.4 µM | [2] > 100 µM | [3] 65.6 µM | [7] 66.8 µM | [5] 18.6 µM | [6] 99.5 µM

c1ccc(COc2ccc3[nH]c4c5c6ccccc6nc-5c[nH]c4c3c2)cc1
inactive: [1] 20.9 µM | [3] 13.7 µM | [4] 13.2 µM | [5] 16.6 µM | [6] 16 µM
